PMC6222476 (Molecules : A Journal of Synthetic Chemistry and Natural …, 2018)
Read-outs that look alike come from different tables or passages of the source.

Tests used:
[1] = tested on: IMR-32 neuroblastoma cell line; assay: cells; type: cell-based, human; settings: SRB assay, 48 h
Experimental: (§1) All the newly synthesized compounds were screened for their in vitro anticancer activity against six cancer cell lines: SK-MEL-2, MCF-7, IMR-32, MG-63, HT-29 and Hep-G2 by SRB assay, using adriamycin as a standard drug. All the synthesized derivatives 4(a–n) were also tested for their cytotoxic effect on normal cell lines i.e., NIH/3T3 (murine embryonic fibroblast by the SRB assay method. The cell lines were grown in RPMI 1640 medium containing 10% fetal bovine serum and 2 mM L-glutamine. For the present screening experiments, cells were inoculated into 96 well microtiter plates in 90 µL at 5000 cells per well. After cell inoculation, the microtiter plates were incubated at 37 °C, 5% CO2, 95% air and 100% relative humidity for 24 h prior to addition of experimental drugs. Experimental drugs were solubilized in appropriate solvent to prepare stock of 10^−2 concentration. At the time of experiment four 10-fold serial dilutions were made using complete medium. Aliquots of 10 µL of these different drug dilutions were added to the appropriate micro-titer wells already containing 90 µL of medium, resulting in the required final drug concentrations. After compound addition, plates were incubated at standard conditions for 48 h. and assay was terminated by the addition of cold trichloroacetic acid (TCA). Cells were fixed in situ by the gentle addition of […] (final concentration, 10% TCA) and incubated for 60 min at 4 °C. The supernatant was discarded; the plates were washed five times with tap water and air dried.
(§2) Sulforhodamine B (SRB) solution (50 µL) at 0.4% (w/v) in 1% acetic acid was added to each of the wells, and plates were incubated for 20 min at room temperature. After staining, unbound dye was recovered and the residual dye was removed by washing five times with 1% acetic acid. The plates were air dried. Bound stain was subsequently eluted with 10 mM trizma base, and the absorbance was read on an ELISA plate reader at a wavelength of 540 nm with 690 nm reference wavelength. All the tests were repeated in at least three independent experiments at the concentrations of 10, 20, 40 and 80 µg/mL [57].

[2] = tested on: NIH/3T3 normal murine embryonic fibroblast cell line; assay: in vitro; type: cell-based; settings: SRB assay
Experimental: as §1, §2

[3] = tested on: Hep-G2 human hepatoma cell line; assay: cells; type: cell-based; settings: for GI50: SRB assay, 48 h, Hep-G2
Experimental: as §1, §2

[4] = tested on: HT-29 human colon cancer cell line; assay: cells; type: cell-based; settings: for anticancer activity compared with standard drug adriamycin, HT-29: HT-29 (human colon cancer) cell line; for GI50: SRB assay, 48 h, HT-29
Experimental: as §1, §2

[5] = tested on: MG-63 human osteosarcoma cell line; assay: cells; type: cell-based; settings: SRB assay, 48 h
Experimental: as §1, §2

[6] = tested on: MCF-7 human breast cancer cell line; assay: cells; type: cell-based; settings: 48 h
Experimental: as §1, §2

[7] = tested on: SK-MEL-2 human melanoma cancer cell line; assay: cells; type: cell-based; settings: SRB assay, 48 h, read-out: GI50 SKMEL-2
Experimental: as §1, §2

[8] = in vitro; type: cell-based; settings: mouse, SRB assay, normal murine embryonic fibroblast cell line
Experimental: as §1, §2

| GI50 at 48 h ([8]; NIH/3T3 normal murine embryonic fibroblast cells) [µM] | SMILES | GI50 [1] [µM] | GI50 [2] [µM] | anticancer activity compared with standard drug Adriamycin, Hep-G2 ([3]; Hep-G2 (human hepatoma) cell line) | GI50 [3] [µM] | anticancer activity compared with standard drug adriamycin, HT-29 [4] | GI50 [4] [µM] | GI50 [5] [µM] | GI50 ([6]; SRB assay) [µM] | GI50 [7] [µM] | GI50 ([1]; Homo sapiens) [µM] | GI50 ([3]; Homo sapiens, HepG2) [µM] | GI50 ([4]; Homo sapiens) [µM] | GI50 ([5]; Homo sapiens) [µM] | GI50 ([6]; Homo sapiens, MCF7, SRB assay) [µM] | GI50 ([7]; Homo sapiens) [µM] | GI50 ([8]; read-out: GI50 NIH/3T3) [µM] | melting point [°C] |
| --- | --- | --- | --- | --- | --- | --- | --- | --- | --- | --- | --- | --- | --- | --- | --- | --- | --- | --- |
|  | CCOP(=O)(OCC)C(N/N=C1\C(=O)Nc2ccccc21)c1cccs1 (centres unmarked) [4i, (Z)-Diethyl(2-(2-oxoindolin-3-ylidene)hydrazinyl)(thiophen-2-yl)methylphosphonate] | > 100 | > 250 | equipotent | < 0.1 | equipotent | < 0.1 | < 0.1 | > 100 | 55.5 |  |  |  |  |  |  |  |  |
| 82.2 | COc1cccc2c1C(=O)c1c(O)c3c(c(O)c1C2=O)C[C@@](O)(C(=O)CO)C[C@@H]3O[C@H]1C[C@H](N)[C@H](O)[C@H](C)O1 [ADR, Adriamycin, reference compound] |  |  |  |  |  |  |  |  |  | < 0.1 | < 0.1 | < 0.1 | < 0.1 | < 0.1 | < 0.1 |  |  |
|  | CCOP(=O)(OCC)C(N/N=C1\C(=O)Nc2ccccc21)c1scnc1C (centres unmarked) [4n, (Z)-Diethyl (4-methylthiazole-5-yl)(2-(2-oxoindolin-3-ylidene)hydrazinyl)methylphosphonate] |  |  |  |  | equipotent |  |  |  |  | 67.8 | 24.9 | < 0.1 | < 0.1 | 58.2 | 33.1 | > 250 | 188 to 190 |
|  | CCOP(=O)(OCC)C(NN=C1C(=O)Nc2ccccc21)c1ccccc1 (centres unmarked) [4a, Diethyl(phenyl)(2-(2-oxoindolin-3-ylidene)hydrazinyl)methylphosphonate] | > 100 | > 250 |  | 55.2 |  | 56.9 | < 0.1 | > 100 | 56.9 |  |  |  |  |  |  |  |  |
|  | CCOP(=O)(OCC)C(NN=C1C(=O)Nc2ccccc21)c1ccc(F)cc1 (centres unmarked) [4c, Diethyl(4-flurophenyl)(2-(2-oxoindolin-3-ylidene)hydrazinyl)methylphosphonate] | > 100 | > 250 |  | 32 |  | 20.8 | < 0.1 | > 100 | 57.5 |  |  |  |  |  |  |  |  |
|  | CCOP(=O)(OCC)C(NN=C1C(=O)Nc2ccccc21)c1ccco1 (centres unmarked) [4j, (Z)-Diethylfuran-2-yl(2-(2-oxoindolin-3-ylidene)hydrazinyl)methylphosphonate] | > 100 | > 250 |  | 44.6 | equipotent | < 0.1 | < 0.1 | > 100 | 93.9 |  |  |  |  |  |  |  |  |
